The values that follow come from paper PMC12264121 (Scientific Reports, 2025).

One may read the IC50 as the midpoint of a concentration-inhibition curve. Lower therefore signals higher potency.

Format in all cases: biochemical
In test [1] the target is T1, hCA-IX (Homo sapiens, UniProt Q16790). The experiment in a line: biochemical.
Test [2] deals with T2, hCA-XII (Homo sapiens, UniProt O43570). Kind of test: Carbonic anhydrase inhibition assay.
The target in test [3] is T3, hCA-II (Homo sapiens, UniProt P00918). Kind of test: Enzyme kinetics. Conditions: CA-II; substrate 0-900 µM; inhibitor 0, 0.2, 0.4, 0.6 µM.
Test [4] concerns the target T3, hCA-II. The experiment in a line: Carbonic anhydrase inhibition assay.
The target in test [5] is T2, hCA-XII. Kind of test: Enzyme kinetics. Conditions: CA-XII; substrate 0-900 µM; inhibitor 0, 0.4, 0.6, 0.8 µM.
The target of test [6] is T1, hCA-IX. The experiment in a line: Enzyme kinetics. The note with it: CA-IX; substrate 0-900 µM; inhibitor 0, 0.1, 0.2, 0.3 µM.

T2 sequence (O43570 25-354): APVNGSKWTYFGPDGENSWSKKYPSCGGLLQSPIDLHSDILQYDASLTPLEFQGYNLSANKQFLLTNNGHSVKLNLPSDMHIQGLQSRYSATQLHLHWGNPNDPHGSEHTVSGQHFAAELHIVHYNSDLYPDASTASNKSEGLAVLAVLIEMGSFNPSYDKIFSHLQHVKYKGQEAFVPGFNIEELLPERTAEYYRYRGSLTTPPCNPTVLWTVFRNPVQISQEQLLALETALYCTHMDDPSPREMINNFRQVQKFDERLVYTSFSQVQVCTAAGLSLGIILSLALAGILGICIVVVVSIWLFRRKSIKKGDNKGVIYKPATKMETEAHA

`NS(=O)(=O)c1ccc(-c2ccc(Nc3ccc(F)c(Cl)c3)cc2)cc1` [Compound 9e, 4’-((3-chloro-4-fluorophenyl)amino)-[1,1’-biphenyl]−4-sulfonamide] registered an IC50 at hCA-IX [1] of 3430 ± 150 nM. Also, at hCA-XII [2], the “inhibition of hCA-XII in words” value is on record as “moderate inhibition”. At hCA-II [3], the “Mode of Enzyme Inhibition” value was “Competitive”.
For the molecule `Cc1cc(C)cc(Nc2ccc(-c3ccc(S(N)(=O)=O)cc3)cc2)c1` [Compound 9c, 4’-((3,5-dimethylphenyl)amino)-[1,1’-biphenyl]−4-sulfonamide], the “inhibition of hCA-II in words” value on hCA-II [4] was “inactive”. Further, at hCA-IX [1], the “inhibition of hCA-IX in words” value was “inactive”. The “inhibition of hCA-XII in words” value against hCA-XII [2] was “inactive”.
Regarding `COC(=O)c1ccc(Nc2ccc(-c3ccc(S(N)(=O)=O)cc3)cc2)cc1` [Compound 9b, Methyl 4-((4’-sulfamoyl-[1,1’-biphenyl]−4-yl)amino)benzoate], the IC50 on hCA-II [4] came out at 1030 ± 100 nM; against hCA-IX [1], 1460 ± 80 nM; at hCA-XII [2], 690 ± 150 nM. Further, at hCA-XII [5], the “Mode of Enzyme Inhibition” value is “Competitive”.
Consider `NS(=O)(=O)c1ccc(-c2ccc(Nc3ccncc3)cc2)cc1` [Compound 9d, 4’-(pyridin-4-ylamino)-[1,1’-biphenyl]−4-sulfonamide], for which the midpoint of inhibition on hCA-II [4], the IC50, lay at 1010 ± 100 nM. Also, the “inhibitor potential as compared to standard inhibitor acetazolamide” value at hCA-IX [1] (hCA-IX) is given as 8 fold. In addition, on hCA-IX [6], the “Mode of Enzyme Inhibition” value is reported as “Uncompetitive”.
Consider `NS(=O)(=O)c1ccc(-c2ccc(Nc3ccc(Cl)cc3)cc2)cc1` [Compound 9a, 4’-((4-chlorophenyl)amino)-[1,1’-biphenyl]−4-sulfonamide], for which the half-inhibitory concentration (IC50) against hCA-IX [1] amounted to 2790 ± 20 nM; against hCA-XII [2], 1050 ± 100 nM.
